Test results: PMC9696361, “Nanocrystallization Improves the Solubilization and Cytotoxic Effect of a Poly (ADP-Ribose)-Polymerase-I Inhibitor” (Polymers, 2022)
≈ marks a conversion by molar mass, not a printed value.

What was measured:
p53 = p53 by ELISA in MCF-7 cells; format: cell-based, human; conditions: OLA 10 µgmL^−1, vs untreated control
Experimental: (§1) The p53, Caspase-3 and Caspase-9 activities were measured by ELISA kits following the manufacture’s protocol and reported works. The MCF-7 cells (5 × 10^4 cells/well) were seeded in 96-well plates. The seeded cells were treated with the AqS of OLA-pure and OLA-NCs. The concentration of OLA was kept 10 µgmL^−1, which was approximately near to the IC50 value of the OLA-NCs-2 (9.71 µgmL^−1). The untreated cells were served as control. All the treated cells were allowed to equilibrate at ambient temperature. Approximately 100 µL of p53, Caspase-3 and Caspase-9 reagents were transferred into the respective wells of the plate containing 100 µL of culture media. The plates were covered and stirred for 1–2 min at 500 rpm and then incubated at ambient temperature. After 1 h of incubation the OD was measured at 405 nm wavelength by microplate reader.

Caspase-9 = Caspase-9 by ELISA in MCF-7 cells; format: cell-based, human; conditions: OLA 10 µgmL^−1, vs untreated control
Experimental: as §1

P-glycoprotein (Pgp) = tested on: P-glycoprotein (Pgp); parameters: method as in PMID 24700236; conditions: cited from earlier work
MCF-7 cells = assay: MTT or cell proliferation assay; format: cell-based; conditions: Homo sapiens, MCF7, 48 h, 48 h of incubation, MTT
Experimental: The MCF-7 cells were procured from the American Type Cutler Collection (Manassas, VA, USA). Cells were grown in 50 cm^2 tissue culture flasks using “Dulbecco’s Modified Eagle Medium (DMEM) (UFC Biotech, Riyadh, Saudi Arabia)” at 37 °C in an incubator humidified by 5% CO2. The media was accompanied with 10% fetal bovine serum (Alpha Chemika, Mumbai, India), 1% mixture of Penicillin (100 units·mL^−1): Streptomycin (100 µg·mL^−1) by ThermoFischer Scientific, Waltham, MA, USA, Amphotericin-B (250 ngmL^−1) by Gibco® (Grand Island, NY, USA) and 1% of L-glutamine (BioWest, Riverside, MO, USA). The MTT was purchased from Sigma Aldrich, St. Louis, MO, USA. […]
The anticancer activity of pure drug (OLA)-AqS and OLA-NCs-2 against MCF-7 were examined by assessing the viability of the treated cells by MTT assay. […] The assay was done by observing the enzymatic reduction of a water-soluble dye [3-(4,5-dimethylthiazol-2-yl)-2,5-diphenyltetrazolium bromide] into an insoluble formazan, where the quantitation of formazan designates the relative viability of the cells. […] Optical density (OD) was measured at 570 nm using the spectrophotometric microplate reader (Synergy HT, BioTek Instruments, Winooskim, VT, USA). The cell viability (%) was calculated by Equation (4). […] The IC50 values were calculated as Log (inhibitor) versus normalized response on variable slopes through GraphPad Prism V-5.1. […]

Caspase-3 = Caspase-3 by ELISA in MCF-7 cells; format: cell-based, human; conditions: OLA 10 µgmL^−1, vs untreated control
Experimental: as §1

[1] = Oral pharmacokinetic study in rats; format: in vivo, Male Wistar rats
Experimental: Male Wistar rats were used for this study. The Standing Committee of Bioethics Research (SCBR) at Prince Sattam bin Abdulaziz University, Deanship of Scientific Research has granted the animal ethical approval (SCBR-030-2022) for in vivo studies on rats. Twelve rats were divided in two groups. Group-1 for OLA-AqS and Group-II for OLA-NCs. Each animal of the respective groups received OLA-AqS and OLA-NCs individually. Oral route was selected for the administration of all OLA formulations at 25 mg·kg^−1 of body weight equivalent dose of OLA was given orally to all animals. At predetermined time points (0.25, 0.5, 1, 3, 6 and 9 h) approximately 0.5 mL of blood was aspirated through retro orbital plexus from each animal. The samples were collected in heparinized tubes and centrifuged at 6000 rpm for 10 min and at 4 °C to obtain the plasma. Approximately 200 µL supernatant (plasma) was collected and stored at −80 °C till analysis was performed.
Previously reported RP-HPLC method was used for the analysis of OLA in the plasma samples [7, 20]. In brief, the HPLC system (Waters® 1500 Series, Milford, MA, USA) was fitted out with UV-dual absorbance detector (Waters® Model-2489), Binary pump (Waters® Moel-1525), Autosampler (Waters® Model-2707 plus). The HPLC-UV system was monitored and controlled by the “Breeze software”. A C18 Waters symmetry column (150 × 4.6 mm, 5 µm, particle size) was used for the elution of OLA and Paclitaxel (used as internal standard, IS). The mobile phase composed of ammonium acetate buffer (pH was adjusted to 3.5 by Orthophosphoric acid) and Methanol at 50:50 (v/v) was pumped at isocratic mode at the flow rate of 1 mL·min^−1. The UV-detection wavelength was 254 nm (for OLA) and 230 nm (for IS). The column heater temperature was set to 35 °C and the volume of injection was 30 µL.
Protein precipitation method (simple with high recovery) was used for the drug extraction from the collected plasma samples. The calibration curve samples were prepared by pipetting 50 μL of working stock solution of OLA (in methanol) and 20 μL of IS (20 µg/mL) into 140 μL of plasma and the mixture was vortexed for 30 s. Acetonitrile (290 μL) was added into the obtained mixture for protein precipitation, vortexed for 2 min and then centrifuged at 13,500 rpm for 10 min. Approximately 200 µL of the supernatant was collected and 30 µL of the supernatant was injected into HPLC system for the quantification of the drugs in the samples.
The results were represented as mean with standard deviation (± SD), unless otherwise indicated. The statistical analysis was performed using GraphPad Prism: Version-5.1 (GraphPad Software, Inc., San Diego, CA, USA). The pharmacokinetics parameters was calculated by “PK-Solver Software, Nanjing, China using MS-Excel-2013” through the non-compartmental approach. The comparative analysis of the data was accomplished by Student’s t-test and p < 0.05 was considered as statistically significant, unless otherwise indicated.

[2] = Saturation solubility of pure OLA and its NCs; format: physicochemical; conditions: thermodynamic from solid
Experimental: The excess amount of pure OLA and NCs in triplicate were added into 1 mL of each solvent in glass vials. The mixtures were vortexed for 30 s and put into an orbital shaking (at 100 stroke per min) water bath (Julabo®, Allentown, PA, USA) maintained at 37 ± 1 °C for 72 h. Thereafter, vials were taken out and kept at room temperature for 24 h to settle down the undissolved drugs. Then, the supernatants were collected, filtered by 0.45 µ filtration unit (Millipore, Molsheim, France), diluted (if needed) and 30 µL was injected into HPLC-UV system for the quantification of the dissolved drugs.

[3] = parameters: method as in PMID 24700236; conditions: cited from earlier work
[4] = Oral pharmacokinetic study in rats; format: in vivo, Male Wistar rats; remark: listed apart in the source
[5] = male, Wistar, rat, plasma, single oral dose 25 mg·kg^−1

- IC50 (MCF-7 cells): 28.4 µg/mL
- AUC(0-inf) [1, 5]: 913 ± 138 ng·h/mL
- Tmax [1, 5]: 2 h
- half-life [1, 5]: 1.36 ± 0.04 h
- MRT inf ([1]; male, Wistar, rat, plasma, single oral dose 25 mg·kg^−1, read-out: MRT0-∞): 3.37 ± 0.03 h
- Cmax ([1]; male, Wistar, rat, single oral dose 25 mg·kg^−1, plasma): 278 ± 46.5 ng/mL
- AUMC0-∞ ([1]; single oral dose 25 mg·kg^−1): 3081.17 ± 471.32 ng·mL^−1·h^2
- Cl/F ([1]; single oral dose 25 mg·kg^−1, listed as OLA-Pure): 6.94 ± 0.96 L/h
- Cl/F ([1]; single oral dose 25 mg·kg^−1, listed as OLA-pure): 6.94 L/h
- solubility ([2]; 0.1N HCl with 0.5% Soluplus, 37 °C, aqueous with cosolvent or surfactant or cyclodextrin, in 0.1N HCl (pH 1.2) with 0.5% Soluplus): 31.1 ± 3.9 µg/mL (≈ 71.6 µM)
- solubility ([2]; 0.1N HCl with 0.5% Tween-80, 37 °C, aqueous with cosolvent or surfactant or cyclodextrin, in 0.1N HCl (pH 1.2) with 0.5% Tween-80): 12.7 ± 3.9 µg/mL (≈ 29.2 µM)
- solubility ([2]; 37 °C, simulated gastric fluid, in 0.1N HCl (pH 1.2)): 7.1 ± 2.7 µg/mL (≈ 16.3 µM)
- solubility at 72 h ([2]; phosphate buffer (PBS) with 0.5% Soluplus, pH 7.4, aqueous with cosolvent or surfactant or cyclodextrin, in PBS with 0.5% Soluplus, 37 °C): 35.6 ± 7.2 µg/mL (≈ 81.9 µM)
- solubility at 72 h ([2]; phosphate buffer (PBS) with 0.5% Tween-80, pH 7.4, aqueous with cosolvent or surfactant or cyclodextrin, in PBS with 0.5% Tween-80, 37 °C): 14.2 ± 5.1 µg/mL (≈ 32.7 µM)
- solubility at 72 h ([2]; phosphate buffer (PBS), pH 7.4, aqueous buffer, in PBS, 37 °C): 9.3 ± 2.4 µg/mL (≈ 21.4 µM)
- AUC(0-t) ([4]; male, Wistar, rat, plasma, single oral dose 25 mg·kg^−1, read-out: AUC0–12 h): 882 ± 137 ng·h/mL
- Last plasma sample in which the drug was detected ([4]; oral, undetected in 10 h and 12 h samples): up to 8 h
Compound: O=C(c1cc(Cc2n[nH]c(=O)c3ccccc23)ccc1F)N1CCN(C(=O)C2CC2)CC1 [OLA, Olaparib]
- p53 protein expression, times higher than control (p53): 7.2 times
- Increased expression of Caspase-9 vs control (Caspase-9): ~2 folds
- Concentration at which the Pgp-mediated efflux is saturated (P-glycoprotein (Pgp)): > 260 µM
- Increased activities of Caspase-3 vs control (Caspase-3): approximately 4.3 folds
- Solubility at intestinal fluid pH [3]: 0.16 mg·mL^−1
